Where two headings read alike, the source gives them in different places.
What was measured:
RmlA Q83N = molecular target: T1, RmlA Q83N (Salmonella typhimurium, UniProt P26393, Q83N); assay: Relative activity of RmlA mutant Q83N with alternative NTPs; assay type: biochemical, Salmonella enterica typhimurium LT2; details: 10 mM Glucose-1-phosphate, 0.1-10 μM enzyme, 5 mM NTP, 10 mM MgCl2, pH 8.0, 37° C.
T1 construct: His6 (pET28a) (N); made in house; host or cells: Escherichia coli BL21 (DE3)
Excerpt: (§1) RmlA mutagenesis—RmlA mutants were generated with the Quikchange mutagenesis kit (Stratagene, La Jolla, Calif., USA) using the wt RmlA-pET28a parent expression plasmid as the template and the primers indicated in Table 1. Individual progeny plasmids were confirmed by DNA sequencing to carry the desired mutations. Driven by these mutant plasmids, the corresponding RmlA variants were subsequently expressed and purified as described above.
(§2) Enzymatic Reactions—The enzyme assay was accomplished via slight modification of previously reported methods (Jiang et al. (2000) J. Am. Chem. Soc. 122, 6803-6804; Jiang et al. (2001) Angew. Chem., Int. Ed. 40, 1502-1505; Jiang et al. (2003) Chem Bio Chem 4, 443-446; Barton et al. (2002) Proc. Natl. Acad. Sci. U.S.A. 99, 13397-13402). In a typical reaction, sugar-1-phosphate (10 mM final) and enzyme (0.01-50 μM) were mixed with NTP (0.01-40 mM) in the presence of MgCl2 ([NTP]+5 mM) and 10 U/mL inorganic pyrophosphatase (Sigma, St. Louis, Mo., USA) in 100 mM Tris HCl, pH 8.0 (20 μL final volume). Typical reactions were analyzed after 10 min at 37° C. and reaction times were extended for some slow reacting sugar/NTP combinations. Reactions were stopped by the addition of 80 μL prewarmed HPLC buffer and heat inactivation (95° C., 5 min). The amount of enzyme used and the incubation time was adjusted so that the reactions never proceeded to more than 10% turnover for kinetics, or 30% for activity assays.
(§3) Product Characterization—Reactions were analyzed via analytical HPLC (Supelcosil LC18-T; Supelco, Bellefonte, Pa.; 5 μm, 250×3 mm, 40 mM phosphoric acid, pH 6.5 with triethylamine, with a gradient of 0-10% MeOH over 20 min, 0.8 mL/min, A254). Due to earlier elution, a 5 min 0% MeOH isocratic hold was performed prior to starting the gradient for CTP-containing reactions. For nucleotide sugar products with commercially available standards, HPLC peak identity was confirmed by co-elution.

RmlA Q83S [1] = molecular target: T2, RmlA Q83S (Salmonella typhimurium, UniProt P26393, Q83S); assay: Pseudo first order kinetics of RmlA Q83S mutant; assay type: biochemical, Salmonella enterica typhimurium LT2; details: 10 mM glucose-1-phosphate, 0.05-25 μM enzyme, [NTP] + 5 mM MgCl2, 100 mM Tris-HCl pH 8.0, 37° C.; for Km: read-out: KM^app
T2 construct: His6 (pET28a) (N); made in house; host or cells: Escherichia coli BL21 (DE3)
Excerpt: (§4) Driven by these mutant plasmids, the corresponding RmlA variants were subsequently expressed and purified as described above.
as §2
as §3, with “reactions.” for “reactions. For nucleotide sugar products with commercially available standards, HPLC peak identity was confirmed by co-elution.”
(§5) Kinetic Measurements—Pseudo first order kinetics were obtained by fixing glucose-1-phosphate at a saturating concentration of 10 mM (Barton et al. (2001) Nat Struct Biol 8, 545-551), and titrating NTPs. At least eight different concentrations in the range of ¼×KM to 4×KM (0.09-20 mM for dTTP, 0.2-40 mM for others) were assayed in triplicate. […] Activities were corrected for time and enzyme concentrations, and the kinetic curves were fit to the Michaelis-Menton equation using SigmaPlot with the Enzyme Kinetics module (SPSS, Chicago, Ill., USA).

RmlA Q83D [2] = molecular target: T3, RmlA Q83D (Salmonella typhimurium, UniProt P26393, Q83D); assay: Relative activity of RmlA mutant Q83D with alternative NTPs; assay type: biochemical, Salmonella enterica typhimurium LT2; details: 10 mM Glucose-1-phosphate, 0.1-10 μM enzyme, 5 mM NTP, 10 mM MgCl2, pH 8.0, 37° C.
T3 construct: using BSA as a standard, and a molecular mass of 34.6 kDa; His6 (pET28a) (N); made in house; host or cells: Escherichia coli BL21 (DE3)
Excerpt: as §1, §2, §3

[3] = molecular target: wt RmlA (glucose-1-phosphate thymidylyltransferase) (Salmonella typhimurium, UniProt P26393)
Procedure: as §2
as §3, with “reactions.” for “reactions. For nucleotide sugar products with commercially available standards, HPLC peak identity was confirmed by co-elution.”
as §5

RmlA Q83E = molecular target: T4, RmlA Q83E (Salmonella typhimurium, UniProt P26393, Q83E); assay: Relative activity of RmlA mutant Q83E with alternative NTPs; assay type: biochemical, Salmonella enterica typhimurium LT2; details: 10 mM Glucose-1-phosphate, 0.1-10 μM enzyme, 5 mM NTP, 10 mM MgCl2, pH 8.0, 37° C.
T4 construct: His6 (pET28a) (N); made in house; host or cells: Escherichia coli BL21 (DE3)
Excerpt: as §1, §2, §3

ST0452 = ST0452 (Sulfurisphaera tokodaii, UniProt Q975F9); details: Sulfolobus tokodaii ST0452, literature; cited from earlier work
RmlA Q83S [4] = molecular target: T2, RmlA Q83S; assay: Relative activity of RmlA mutant Q83S with alternative NTPs; assay type: biochemical, Salmonella enterica typhimurium LT2; details: 10 mM Glucose-1-phosphate, 0.1-10 μM enzyme, 5 mM NTP, 10 mM MgCl2, pH 8.0, 37° C.
Excerpt: as §1, §2, §3

RmlA Q83A = molecular target: T5, RmlA Q83A (Salmonella typhimurium, UniProt P26393, Q83A); assay: Relative activity of RmlA mutant Q83A with alternative NTPs; assay type: biochemical, Salmonella enterica typhimurium LT2; details: 10 mM Glucose-1-phosphate, 0.1-10 μM enzyme, 5 mM NTP, 10 mM MgCl2, pH 8.0, 37° C.
T5 construct: His6 (pET28a) (N); made in house; host or cells: Escherichia coli BL21 (DE3)
Excerpt: as §1, §2, §3

[5] = tested on: UDP-sugar pyrophosphorylase (Usp); details: Thermus caldophilus Usp, literature; cited from earlier work
RmlA Q83D [6] = molecular target: T3, RmlA Q83D; assay: Pseudo first order kinetics of RmlA Q83D mutant; assay type: biochemical, Salmonella enterica typhimurium LT2; details: for kcat^app / Km: 10 mM glucose-1-phosphate, 0.05-25 μM enzyme, [NTP] + 5 mM MgCl2, 100 mM Tris-HCl pH 8.0, 37° C.; for Km: read-out: KM^app
Excerpt: as §4, §2
as §3, with “reactions.” for “reactions. For nucleotide sugar products with commercially available standards, HPLC peak identity was confirmed by co-elution.”
as §5

T4 sequence (P26393 whole entry Q83E): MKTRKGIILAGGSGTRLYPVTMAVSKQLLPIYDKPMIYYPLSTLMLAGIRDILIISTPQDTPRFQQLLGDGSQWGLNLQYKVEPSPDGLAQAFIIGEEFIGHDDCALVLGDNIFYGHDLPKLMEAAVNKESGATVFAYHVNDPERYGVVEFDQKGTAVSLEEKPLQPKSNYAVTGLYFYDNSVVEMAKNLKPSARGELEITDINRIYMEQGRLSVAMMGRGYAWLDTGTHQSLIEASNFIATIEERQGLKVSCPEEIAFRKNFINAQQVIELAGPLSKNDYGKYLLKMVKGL
T5 sequence (P26393 whole entry Q83A): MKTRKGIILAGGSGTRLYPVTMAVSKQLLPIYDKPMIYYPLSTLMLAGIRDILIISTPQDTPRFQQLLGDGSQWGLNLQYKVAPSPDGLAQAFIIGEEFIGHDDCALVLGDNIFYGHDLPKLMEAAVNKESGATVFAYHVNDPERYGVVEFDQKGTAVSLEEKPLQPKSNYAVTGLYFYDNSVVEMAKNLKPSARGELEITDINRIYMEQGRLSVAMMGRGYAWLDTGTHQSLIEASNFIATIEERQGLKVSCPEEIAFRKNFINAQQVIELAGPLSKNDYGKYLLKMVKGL
T2 sequence (P26393 whole entry Q83S): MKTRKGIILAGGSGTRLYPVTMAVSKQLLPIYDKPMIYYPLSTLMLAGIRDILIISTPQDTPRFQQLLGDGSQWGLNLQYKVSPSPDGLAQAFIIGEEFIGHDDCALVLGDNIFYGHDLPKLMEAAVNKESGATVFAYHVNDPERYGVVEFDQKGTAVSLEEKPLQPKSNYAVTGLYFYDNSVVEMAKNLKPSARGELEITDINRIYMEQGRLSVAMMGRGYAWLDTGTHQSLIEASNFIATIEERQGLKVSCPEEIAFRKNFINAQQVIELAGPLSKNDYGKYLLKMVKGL
T3 sequence (P26393 whole entry Q83D): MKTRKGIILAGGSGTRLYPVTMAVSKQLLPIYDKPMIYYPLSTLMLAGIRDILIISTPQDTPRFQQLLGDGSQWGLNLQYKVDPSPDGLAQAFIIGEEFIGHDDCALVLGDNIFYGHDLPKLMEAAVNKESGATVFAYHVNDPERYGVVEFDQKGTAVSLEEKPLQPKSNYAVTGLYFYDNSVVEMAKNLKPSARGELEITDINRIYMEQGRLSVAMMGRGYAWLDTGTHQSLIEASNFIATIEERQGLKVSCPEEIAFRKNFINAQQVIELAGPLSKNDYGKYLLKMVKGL
T1 sequence (P26393 whole entry Q83N): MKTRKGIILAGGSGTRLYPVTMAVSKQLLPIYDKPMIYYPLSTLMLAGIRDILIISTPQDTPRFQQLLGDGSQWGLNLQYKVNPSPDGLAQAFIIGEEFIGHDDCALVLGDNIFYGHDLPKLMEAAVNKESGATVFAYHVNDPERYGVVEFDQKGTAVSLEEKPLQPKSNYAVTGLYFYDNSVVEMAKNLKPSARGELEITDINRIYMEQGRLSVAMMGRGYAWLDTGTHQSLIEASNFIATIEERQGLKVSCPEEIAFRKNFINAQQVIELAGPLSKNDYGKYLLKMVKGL
Chain of ST0452 (Q975F9 whole entry): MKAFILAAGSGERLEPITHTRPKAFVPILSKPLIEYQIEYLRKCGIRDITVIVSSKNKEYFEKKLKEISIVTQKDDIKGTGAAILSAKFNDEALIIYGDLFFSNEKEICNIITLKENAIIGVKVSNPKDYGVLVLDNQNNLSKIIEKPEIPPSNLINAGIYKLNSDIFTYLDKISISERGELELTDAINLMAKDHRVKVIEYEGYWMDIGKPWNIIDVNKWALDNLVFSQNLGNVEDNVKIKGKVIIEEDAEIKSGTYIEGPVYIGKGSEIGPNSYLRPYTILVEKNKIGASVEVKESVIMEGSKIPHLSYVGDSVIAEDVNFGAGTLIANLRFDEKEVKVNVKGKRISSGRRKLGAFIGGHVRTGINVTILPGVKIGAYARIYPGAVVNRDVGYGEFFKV
Chain of wt RmlA (glucose-1-phosphate thymidylyltransferase) (P26393 whole entry): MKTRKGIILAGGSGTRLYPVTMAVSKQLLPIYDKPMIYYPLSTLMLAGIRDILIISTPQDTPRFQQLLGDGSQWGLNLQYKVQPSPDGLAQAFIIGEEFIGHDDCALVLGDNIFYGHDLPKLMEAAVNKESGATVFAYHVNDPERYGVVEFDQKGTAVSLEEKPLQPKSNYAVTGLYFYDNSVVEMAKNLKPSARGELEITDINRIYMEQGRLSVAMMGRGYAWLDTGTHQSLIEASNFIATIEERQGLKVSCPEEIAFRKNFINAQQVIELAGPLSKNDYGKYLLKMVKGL

Row | SMILES | Relative activity of Q83N as compared to wt RmlA (RmlA Q83N) | kcat^app (RmlA Q83S [1]) [s⁻¹] | Km (RmlA Q83S [1]) [µM] | Relative activity of Q83D as compared to wt RmlA (RmlA Q83D [2]) | reduction in the apparent RmlA specificity constant (kcat/KM) versus dTTP [3] | Relative activity of Q83E as compared to wt RmlA (RmlA Q83E) | utilization of NTP by ST0452 (ST0452) | Relative activity of Q83S as compared to wt RmlA (RmlA Q83S [4]) | Relative activity of Q83A as compared to wt RmlA (RmlA Q83A) | turnover of glucose-1-phosphate with NTP by Usp [5] | improvement in apparent KM, Q83D versus wild-type (RmlA Q83D [6]) [fold] | kcat^app (RmlA Q83D [6]) [s⁻¹] | Km (RmlA Q83D [6]) [µM] | reduction in the apparent RmlA specificity constant (kcat/KM) versus dTTP ([3]; wild-type RmlA, glucose-1-phosphate) [fold]
1 | Nc1ncnc2c1ncn2[C@@H]1O[C@H](COP(=O)(O)OP(=O)(O)OP(=O)(O)O)[C@@H](O)[C@H]1O [ATP, adenosine-5′-triphosphate] | 6.5 | 0.48 ± 0.0233 | 3400 ± 600 | 0.6 | > 15,000 fold | 0.7 | could not utilize | 14.0 | 7.9 | turn over | – | – | – | –
2 | Nc1ccn([C@@H]2O[C@H](COP(=O)(O)OP(=O)(O)OP(=O)(O)O)[C@@H](O)[C@H]2O)c(=O)n1 [CTP, cytidine-5′-triphosphate] | 0.7 | – | – | 0.2 | – | 0.8 | could not utilize | 1.5 | 1.3 | turn over | – | – | – | –
3 | Nc1nc2c(ncn2[C@@H]2O[C@H](COP(=O)(O)OP(=O)(O)OP(=O)(O)O)[C@@H](O)[C@H]2O)c(=O)[nH]1 [GTP, guanosine-5′-triphosphate] | 0.2 | – | – | 3.7 | – | 2.8 | could not utilize | 2.2 | 0.7 | turn over | 6.5 | 0.213 ± 0.015 | 1300 ± 400 | –
4 | O=c1ccn([C@@H]2O[C@H](COP(=O)(O)OP(=O)(O)OP(=O)(O)O)[C@@H](O)[C@H]2O)c(=O)[nH]1 [UTP, uridine-5′-triphosphate] | 0.2 | – | – | 0.2 | – | 1.3 | good activity | 0.2 | 0.2 | turn over | – | – | – | ~12
5 | Nc1ncnc2c1ncn2[C@H]1C[C@H](O)[C@@H](COP(=O)(O)OP(=O)(O)OP(=O)(O)O)O1 [dATP, 2′-deoxyadenosine-5′-triphosphate] | 3.8 | 5.33 ± 0.333 | 1100 ± 300 | 0.8 | – | 0.4 | good activity | 7.9 | 4.6 | – | – | – | – | –
6 | Nc1ccn([C@H]2C[C@H](O)[C@@H](COP(=O)(O)OP(=O)(O)OP(=O)(O)O)O2)c(=O)n1 [dCTP, 2′-deoxycytidine-5′-triphosphate] | – | – | – | 1.2 | – | 1.1 | good activity | 1.4 | 0.8 | – | – | – | – | –
7 | Nc1nc2c(ncn2[C@H]2C[C@H](O)[C@@H](COP(=O)(O)OP(=O)(O)OP(=O)(O)O)O2)c(=O)[nH]1 [dGTP, 2′-deoxyguanosine-5′-triphosphate] | 0.1 | – | – | 1.6 | – | 1.7 | good activity | 0.6 | 0.2 | – | – | 5 ± 0.333 | 11500 ± 1800 | –
